Assay results published in ChEMBL document CHEMBL3991601, “The target landscape of clinical kinase drugs” (Science, 2017).
Activity calls are given as the source filed them.
Note: in the data inactive means no Kd found up to 30 µM.

Each compound was assayed against Protein kinase C theta type (Homo sapiens, UniProt Q04759).
Protein kinase C theta type, sequence (Q04759 whole entry): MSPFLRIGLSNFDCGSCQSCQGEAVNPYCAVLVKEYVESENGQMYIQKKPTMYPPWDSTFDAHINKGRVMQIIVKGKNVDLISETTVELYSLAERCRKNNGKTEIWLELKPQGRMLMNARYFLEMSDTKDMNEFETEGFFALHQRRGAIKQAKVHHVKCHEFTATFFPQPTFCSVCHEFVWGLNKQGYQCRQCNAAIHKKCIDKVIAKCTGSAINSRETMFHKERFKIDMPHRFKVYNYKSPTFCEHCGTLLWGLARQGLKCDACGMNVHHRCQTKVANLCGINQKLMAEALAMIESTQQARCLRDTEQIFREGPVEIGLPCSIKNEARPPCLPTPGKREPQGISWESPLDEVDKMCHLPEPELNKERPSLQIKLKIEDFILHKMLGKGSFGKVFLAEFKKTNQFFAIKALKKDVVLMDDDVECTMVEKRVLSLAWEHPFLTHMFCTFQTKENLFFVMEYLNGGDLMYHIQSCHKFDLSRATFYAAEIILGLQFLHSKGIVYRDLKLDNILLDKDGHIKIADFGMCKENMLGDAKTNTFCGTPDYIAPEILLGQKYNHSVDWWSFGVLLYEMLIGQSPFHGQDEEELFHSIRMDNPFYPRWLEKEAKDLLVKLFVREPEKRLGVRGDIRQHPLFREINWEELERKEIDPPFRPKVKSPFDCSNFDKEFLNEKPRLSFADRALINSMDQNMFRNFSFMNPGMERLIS
`COc1ccc(-c2ccc3c(N4CCOC[C@@H]4C)nc(N4CCOC[C@@H]4C)nc3n2)cc1CO` [AZD-8055] was tested, and the Kd was > 30 µM (inactive).
With `Cc1ccc(NC(=O)c2ccc(CN3CC[C@H](N(C)C)C3)c(C(F)(F)F)c2)cc1Nc1nccc(-c2cncnc2)n1` [BAFETINIB] the Kd was > 30 µM (inactive).
With `CCS(=O)(=O)N1CC(CC#N)(n2cc(-c3ncnc4[nH]ccc34)cn2)C1` [BARICITINIB] the Kd was > 30 µM (inactive).
`O=C(c1ccc(F)c(F)c1Nc1ccc(I)cc1F)N1CC(O)([C@@H]2CCCCN2)C1` [COBIMETINIB] was tested, and the Kd was > 30 µM (inactive).

The compounds below were run against Epidermal growth factor receptor (Homo sapiens, UniProt P00533).
Epidermal growth factor receptor, sequence (P00533 whole entry): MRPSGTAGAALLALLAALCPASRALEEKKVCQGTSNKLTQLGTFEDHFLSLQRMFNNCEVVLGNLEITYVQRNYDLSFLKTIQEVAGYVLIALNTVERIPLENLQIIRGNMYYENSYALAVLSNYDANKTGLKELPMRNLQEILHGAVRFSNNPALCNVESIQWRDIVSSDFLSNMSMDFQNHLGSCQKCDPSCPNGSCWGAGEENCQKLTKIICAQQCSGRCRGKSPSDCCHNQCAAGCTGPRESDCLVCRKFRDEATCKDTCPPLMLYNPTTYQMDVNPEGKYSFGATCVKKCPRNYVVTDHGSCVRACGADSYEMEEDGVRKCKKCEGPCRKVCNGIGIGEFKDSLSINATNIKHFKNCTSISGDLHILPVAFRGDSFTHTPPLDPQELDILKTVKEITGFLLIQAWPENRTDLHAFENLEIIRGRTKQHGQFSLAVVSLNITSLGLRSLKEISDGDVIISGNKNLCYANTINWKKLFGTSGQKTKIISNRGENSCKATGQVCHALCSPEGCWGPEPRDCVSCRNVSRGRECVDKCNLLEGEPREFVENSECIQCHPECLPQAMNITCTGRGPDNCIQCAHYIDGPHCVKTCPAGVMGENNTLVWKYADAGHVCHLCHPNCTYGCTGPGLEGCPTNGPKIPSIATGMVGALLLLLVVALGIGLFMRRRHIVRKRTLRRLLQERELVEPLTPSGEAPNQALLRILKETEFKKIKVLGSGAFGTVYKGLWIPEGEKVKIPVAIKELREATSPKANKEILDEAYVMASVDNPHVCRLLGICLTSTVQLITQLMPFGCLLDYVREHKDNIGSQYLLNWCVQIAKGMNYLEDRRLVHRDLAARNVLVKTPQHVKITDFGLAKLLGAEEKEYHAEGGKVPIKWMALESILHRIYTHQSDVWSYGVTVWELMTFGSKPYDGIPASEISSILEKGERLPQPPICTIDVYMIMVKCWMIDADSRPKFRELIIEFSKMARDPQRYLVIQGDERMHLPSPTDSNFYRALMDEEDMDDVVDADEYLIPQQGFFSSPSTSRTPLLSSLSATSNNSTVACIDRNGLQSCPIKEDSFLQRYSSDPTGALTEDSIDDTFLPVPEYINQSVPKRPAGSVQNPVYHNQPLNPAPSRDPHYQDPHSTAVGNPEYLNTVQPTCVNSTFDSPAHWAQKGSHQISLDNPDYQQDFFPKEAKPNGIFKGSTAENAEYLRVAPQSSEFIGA
With `COc1ccc(-c2ccc3c(N4CCOC[C@@H]4C)nc(N4CCOC[C@@H]4C)nc3n2)cc1CO` [AZD-8055] the Kd was > 30 µM (inactive).
`Cc1ccc(NC(=O)c2ccc(CN3CC[C@H](N(C)C)C3)c(C(F)(F)F)c2)cc1Nc1nccc(-c2cncnc2)n1` [BAFETINIB] was tested, and the Kd was > 30 µM (inactive).
`CCS(=O)(=O)N1CC(CC#N)(n2cc(-c3ncnc4[nH]ccc34)cn2)C1` [BARICITINIB] was tested, and the Kd was > 30 µM (inactive).
In the case of `O=C(c1ccc(F)c(F)c1Nc1ccc(I)cc1F)N1CC(O)([C@@H]2CCCCN2)C1` [COBIMETINIB], the Kd is reported as > 30 µM (inactive).

Each compound was assayed against Serine/threonine-protein kinase MRCK gamma (Homo sapiens, UniProt Q6DT37).
Serine/threonine-protein kinase MRCK gamma, sequence (Q6DT37 whole entry): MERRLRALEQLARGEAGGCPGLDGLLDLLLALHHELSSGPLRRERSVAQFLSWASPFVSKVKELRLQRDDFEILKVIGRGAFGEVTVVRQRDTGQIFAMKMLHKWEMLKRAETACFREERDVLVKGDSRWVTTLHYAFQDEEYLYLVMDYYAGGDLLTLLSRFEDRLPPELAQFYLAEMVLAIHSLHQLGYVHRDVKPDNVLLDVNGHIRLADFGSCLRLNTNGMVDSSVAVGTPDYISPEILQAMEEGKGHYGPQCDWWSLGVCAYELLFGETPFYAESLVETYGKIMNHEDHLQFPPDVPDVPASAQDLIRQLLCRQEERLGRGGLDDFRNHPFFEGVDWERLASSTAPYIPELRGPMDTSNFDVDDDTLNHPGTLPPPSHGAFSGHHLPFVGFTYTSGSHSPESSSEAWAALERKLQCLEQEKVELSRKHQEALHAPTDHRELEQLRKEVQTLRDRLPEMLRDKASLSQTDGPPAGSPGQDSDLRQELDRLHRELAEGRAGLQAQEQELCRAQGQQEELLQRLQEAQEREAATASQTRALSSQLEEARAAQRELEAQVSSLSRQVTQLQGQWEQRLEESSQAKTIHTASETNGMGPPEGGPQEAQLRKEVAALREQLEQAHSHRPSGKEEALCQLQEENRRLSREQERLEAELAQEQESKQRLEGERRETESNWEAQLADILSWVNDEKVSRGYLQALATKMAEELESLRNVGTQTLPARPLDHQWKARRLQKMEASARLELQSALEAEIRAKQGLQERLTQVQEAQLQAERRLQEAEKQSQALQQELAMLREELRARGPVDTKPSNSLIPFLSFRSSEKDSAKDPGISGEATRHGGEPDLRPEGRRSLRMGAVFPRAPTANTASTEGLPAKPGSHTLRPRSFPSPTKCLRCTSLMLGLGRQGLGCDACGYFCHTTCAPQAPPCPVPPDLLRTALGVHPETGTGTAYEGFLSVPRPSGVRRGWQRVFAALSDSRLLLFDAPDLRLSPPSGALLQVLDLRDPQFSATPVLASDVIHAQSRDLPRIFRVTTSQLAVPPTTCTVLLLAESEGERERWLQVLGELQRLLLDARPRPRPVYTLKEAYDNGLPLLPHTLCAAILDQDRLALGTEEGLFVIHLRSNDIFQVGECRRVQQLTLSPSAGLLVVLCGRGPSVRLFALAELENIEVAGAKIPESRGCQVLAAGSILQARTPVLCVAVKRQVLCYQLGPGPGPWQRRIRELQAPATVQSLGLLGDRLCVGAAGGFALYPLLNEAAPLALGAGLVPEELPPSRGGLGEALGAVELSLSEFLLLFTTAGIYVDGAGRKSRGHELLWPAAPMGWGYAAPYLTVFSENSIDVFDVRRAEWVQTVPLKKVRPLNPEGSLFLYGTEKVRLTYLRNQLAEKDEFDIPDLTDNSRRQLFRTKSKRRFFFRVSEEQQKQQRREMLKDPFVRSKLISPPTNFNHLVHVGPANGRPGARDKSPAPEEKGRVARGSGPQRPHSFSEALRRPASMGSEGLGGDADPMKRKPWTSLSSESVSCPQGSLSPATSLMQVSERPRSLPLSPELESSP
With `COc1ccc(-c2ccc3c(N4CCOC[C@@H]4C)nc(N4CCOC[C@@H]4C)nc3n2)cc1CO` [AZD-8055] the Kd was > 30 µM (inactive).
For `Cc1ccc(NC(=O)c2ccc(CN3CC[C@H](N(C)C)C3)c(C(F)(F)F)c2)cc1Nc1nccc(-c2cncnc2)n1` [BAFETINIB], the Kd was > 30 µM (inactive).
With `CCS(=O)(=O)N1CC(CC#N)(n2cc(-c3ncnc4[nH]ccc34)cn2)C1` [BARICITINIB] the Kd was > 30 µM (inactive).

The compounds below were run against T1, Thyroid hormone receptor-associated protein 3 (Homo sapiens, UniProt Q9Y2W1).
T1 sequence (Q9Y2W1 whole entry): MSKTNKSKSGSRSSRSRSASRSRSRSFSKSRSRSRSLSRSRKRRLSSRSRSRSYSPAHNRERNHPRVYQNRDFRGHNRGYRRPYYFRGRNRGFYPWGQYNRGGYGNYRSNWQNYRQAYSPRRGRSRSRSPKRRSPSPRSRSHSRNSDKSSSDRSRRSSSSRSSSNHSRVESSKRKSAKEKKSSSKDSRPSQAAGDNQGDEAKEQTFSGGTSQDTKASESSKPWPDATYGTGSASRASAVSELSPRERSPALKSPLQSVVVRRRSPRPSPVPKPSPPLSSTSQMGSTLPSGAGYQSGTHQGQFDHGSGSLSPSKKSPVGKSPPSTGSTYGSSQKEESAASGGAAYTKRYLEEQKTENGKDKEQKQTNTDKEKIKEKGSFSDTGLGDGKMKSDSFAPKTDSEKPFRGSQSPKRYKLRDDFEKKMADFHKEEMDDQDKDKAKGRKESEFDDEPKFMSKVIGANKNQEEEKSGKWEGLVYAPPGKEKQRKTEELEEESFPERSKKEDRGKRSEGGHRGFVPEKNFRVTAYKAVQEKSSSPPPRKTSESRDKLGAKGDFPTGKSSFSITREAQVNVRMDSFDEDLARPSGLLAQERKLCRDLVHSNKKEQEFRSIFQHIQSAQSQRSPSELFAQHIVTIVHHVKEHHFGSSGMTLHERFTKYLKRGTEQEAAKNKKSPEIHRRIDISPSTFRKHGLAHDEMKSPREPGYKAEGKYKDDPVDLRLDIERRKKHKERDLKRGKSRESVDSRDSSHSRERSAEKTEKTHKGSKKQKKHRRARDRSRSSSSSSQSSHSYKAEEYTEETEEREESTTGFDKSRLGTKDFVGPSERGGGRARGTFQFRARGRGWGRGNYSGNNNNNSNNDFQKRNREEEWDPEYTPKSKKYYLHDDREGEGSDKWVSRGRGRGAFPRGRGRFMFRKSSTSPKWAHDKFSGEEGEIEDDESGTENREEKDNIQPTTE
`COc1ccc(-c2ccc3c(N4CCOC[C@@H]4C)nc(N4CCOC[C@@H]4C)nc3n2)cc1CO` [AZD-8055] was tested, and the Kd was > 30 µM (inactive).
`Cc1ccc(NC(=O)c2ccc(CN3CC[C@H](N(C)C)C3)c(C(F)(F)F)c2)cc1Nc1nccc(-c2cncnc2)n1` [BAFETINIB] was tested, and the Kd was > 30 µM (inactive).
With `CCS(=O)(=O)N1CC(CC#N)(n2cc(-c3ncnc4[nH]ccc34)cn2)C1` [BARICITINIB] the Kd was > 30 µM (inactive).
With `O=C(c1ccc(F)c(F)c1Nc1ccc(I)cc1F)N1CC(O)([C@@H]2CCCCN2)C1` [COBIMETINIB] the Kd was > 30 µM (inactive).

The compounds below were run against Dual specificity protein kinase CLK2 (Homo sapiens, UniProt P49760).
Dual specificity protein kinase CLK2, sequence (P49760 whole entry): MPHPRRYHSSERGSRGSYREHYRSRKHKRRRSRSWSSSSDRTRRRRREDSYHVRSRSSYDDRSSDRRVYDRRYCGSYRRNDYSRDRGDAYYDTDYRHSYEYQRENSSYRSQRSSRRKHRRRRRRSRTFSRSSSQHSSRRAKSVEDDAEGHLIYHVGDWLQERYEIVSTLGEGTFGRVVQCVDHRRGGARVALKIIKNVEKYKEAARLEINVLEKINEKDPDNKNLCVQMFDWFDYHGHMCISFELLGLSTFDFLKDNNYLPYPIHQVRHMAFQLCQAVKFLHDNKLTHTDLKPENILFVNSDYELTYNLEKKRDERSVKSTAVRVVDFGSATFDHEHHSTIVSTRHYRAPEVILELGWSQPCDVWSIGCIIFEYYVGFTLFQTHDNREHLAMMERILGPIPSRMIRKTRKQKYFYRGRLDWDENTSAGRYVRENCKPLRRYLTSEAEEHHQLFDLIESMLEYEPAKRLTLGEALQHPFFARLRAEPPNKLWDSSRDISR
With `COc1ccc(-c2ccc3c(N4CCOC[C@@H]4C)nc(N4CCOC[C@@H]4C)nc3n2)cc1CO` [AZD-8055] the Kd was > 30 µM (inactive).
For `Cc1ccc(NC(=O)c2ccc(CN3CC[C@H](N(C)C)C3)c(C(F)(F)F)c2)cc1Nc1nccc(-c2cncnc2)n1` [BAFETINIB], the Kd was > 30 µM (inactive).
`CCS(=O)(=O)N1CC(CC#N)(n2cc(-c3ncnc4[nH]ccc34)cn2)C1` [BARICITINIB] was tested, and the Kd was > 30 µM (inactive).
With `O=C(c1ccc(F)c(F)c1Nc1ccc(I)cc1F)N1CC(O)([C@@H]2CCCCN2)C1` [COBIMETINIB] the Kd was > 30 µM (inactive).

What follows are compounds tested against T2, Phosphatidylinositol 5-phosphate 4-kinase type-2 alpha (Homo sapiens, UniProt P48426).
T2 sequence (P48426 whole entry): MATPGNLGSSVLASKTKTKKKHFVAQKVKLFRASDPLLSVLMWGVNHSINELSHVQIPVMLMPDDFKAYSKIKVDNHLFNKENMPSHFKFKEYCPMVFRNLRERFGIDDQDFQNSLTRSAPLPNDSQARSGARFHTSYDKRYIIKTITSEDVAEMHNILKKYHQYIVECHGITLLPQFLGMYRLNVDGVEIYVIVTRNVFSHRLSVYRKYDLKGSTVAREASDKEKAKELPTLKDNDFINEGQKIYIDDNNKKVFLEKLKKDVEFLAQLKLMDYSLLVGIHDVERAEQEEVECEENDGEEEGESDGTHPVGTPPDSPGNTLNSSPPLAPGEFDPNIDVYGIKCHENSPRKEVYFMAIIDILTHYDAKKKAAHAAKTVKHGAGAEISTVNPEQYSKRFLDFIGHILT
In the case of `COc1ccc(-c2ccc3c(N4CCOC[C@@H]4C)nc(N4CCOC[C@@H]4C)nc3n2)cc1CO` [AZD-8055], the Kd is reported as > 30 µM (inactive).
`Cc1ccc(NC(=O)c2ccc(CN3CC[C@H](N(C)C)C3)c(C(F)(F)F)c2)cc1Nc1nccc(-c2cncnc2)n1` [BAFETINIB] was tested, and the Kd was > 30 µM (inactive).
In the case of `O=C(c1ccc(F)c(F)c1Nc1ccc(I)cc1F)N1CC(O)([C@@H]2CCCCN2)C1` [COBIMETINIB], the Kd is reported as > 30 µM (inactive).

These compounds were tested against Proto-oncogene tyrosine-protein kinase receptor Ret (Homo sapiens, UniProt P07949).
Proto-oncogene tyrosine-protein kinase receptor Ret, sequence (P07949 whole entry): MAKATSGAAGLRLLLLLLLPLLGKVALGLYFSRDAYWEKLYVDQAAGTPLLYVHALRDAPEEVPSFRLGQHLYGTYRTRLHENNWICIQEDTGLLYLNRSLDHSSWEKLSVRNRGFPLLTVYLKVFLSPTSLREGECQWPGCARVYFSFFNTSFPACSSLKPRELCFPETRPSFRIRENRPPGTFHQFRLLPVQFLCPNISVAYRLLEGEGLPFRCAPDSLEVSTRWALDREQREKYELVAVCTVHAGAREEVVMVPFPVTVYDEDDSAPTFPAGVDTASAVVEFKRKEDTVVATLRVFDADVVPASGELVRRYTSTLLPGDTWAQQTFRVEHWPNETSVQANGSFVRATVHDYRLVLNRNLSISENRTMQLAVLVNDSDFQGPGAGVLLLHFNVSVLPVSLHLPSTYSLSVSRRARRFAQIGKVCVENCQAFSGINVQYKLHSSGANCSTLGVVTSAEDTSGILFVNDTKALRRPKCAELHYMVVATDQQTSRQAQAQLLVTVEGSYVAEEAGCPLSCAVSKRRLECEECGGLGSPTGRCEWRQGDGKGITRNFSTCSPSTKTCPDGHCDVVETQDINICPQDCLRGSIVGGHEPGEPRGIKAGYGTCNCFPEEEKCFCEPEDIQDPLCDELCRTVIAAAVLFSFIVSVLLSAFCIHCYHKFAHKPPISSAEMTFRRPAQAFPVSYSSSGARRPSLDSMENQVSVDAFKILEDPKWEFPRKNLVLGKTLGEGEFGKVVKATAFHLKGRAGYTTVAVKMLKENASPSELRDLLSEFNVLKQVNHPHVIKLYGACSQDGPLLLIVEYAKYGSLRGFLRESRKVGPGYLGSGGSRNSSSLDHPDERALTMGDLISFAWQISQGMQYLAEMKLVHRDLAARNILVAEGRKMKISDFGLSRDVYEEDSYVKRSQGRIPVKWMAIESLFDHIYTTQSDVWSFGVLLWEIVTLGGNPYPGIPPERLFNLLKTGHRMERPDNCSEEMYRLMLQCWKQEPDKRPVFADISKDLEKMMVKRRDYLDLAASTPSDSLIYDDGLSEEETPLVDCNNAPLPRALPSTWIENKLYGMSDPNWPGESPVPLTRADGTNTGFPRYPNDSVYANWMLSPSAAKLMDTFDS
For `COc1ccc(-c2ccc3c(N4CCOC[C@@H]4C)nc(N4CCOC[C@@H]4C)nc3n2)cc1CO` [AZD-8055], the Kd was > 30 µM (inactive).
With `Cc1ccc(NC(=O)c2ccc(CN3CC[C@H](N(C)C)C3)c(C(F)(F)F)c2)cc1Nc1nccc(-c2cncnc2)n1` [BAFETINIB] the Kd was 2.42 µM (active).
In the case of `CCS(=O)(=O)N1CC(CC#N)(n2cc(-c3ncnc4[nH]ccc34)cn2)C1` [BARICITINIB], the Kd is reported as 0.973 µM (active).
In the case of `O=C(c1ccc(F)c(F)c1Nc1ccc(I)cc1F)N1CC(O)([C@@H]2CCCCN2)C1` [COBIMETINIB], the Kd is reported as > 30 µM (inactive).

What follows are compounds tested against T3, Isoleucine--tRNA ligase, mitochondrial (Homo sapiens, UniProt Q9NSE4).
T3 sequence (Q9NSE4 whole entry): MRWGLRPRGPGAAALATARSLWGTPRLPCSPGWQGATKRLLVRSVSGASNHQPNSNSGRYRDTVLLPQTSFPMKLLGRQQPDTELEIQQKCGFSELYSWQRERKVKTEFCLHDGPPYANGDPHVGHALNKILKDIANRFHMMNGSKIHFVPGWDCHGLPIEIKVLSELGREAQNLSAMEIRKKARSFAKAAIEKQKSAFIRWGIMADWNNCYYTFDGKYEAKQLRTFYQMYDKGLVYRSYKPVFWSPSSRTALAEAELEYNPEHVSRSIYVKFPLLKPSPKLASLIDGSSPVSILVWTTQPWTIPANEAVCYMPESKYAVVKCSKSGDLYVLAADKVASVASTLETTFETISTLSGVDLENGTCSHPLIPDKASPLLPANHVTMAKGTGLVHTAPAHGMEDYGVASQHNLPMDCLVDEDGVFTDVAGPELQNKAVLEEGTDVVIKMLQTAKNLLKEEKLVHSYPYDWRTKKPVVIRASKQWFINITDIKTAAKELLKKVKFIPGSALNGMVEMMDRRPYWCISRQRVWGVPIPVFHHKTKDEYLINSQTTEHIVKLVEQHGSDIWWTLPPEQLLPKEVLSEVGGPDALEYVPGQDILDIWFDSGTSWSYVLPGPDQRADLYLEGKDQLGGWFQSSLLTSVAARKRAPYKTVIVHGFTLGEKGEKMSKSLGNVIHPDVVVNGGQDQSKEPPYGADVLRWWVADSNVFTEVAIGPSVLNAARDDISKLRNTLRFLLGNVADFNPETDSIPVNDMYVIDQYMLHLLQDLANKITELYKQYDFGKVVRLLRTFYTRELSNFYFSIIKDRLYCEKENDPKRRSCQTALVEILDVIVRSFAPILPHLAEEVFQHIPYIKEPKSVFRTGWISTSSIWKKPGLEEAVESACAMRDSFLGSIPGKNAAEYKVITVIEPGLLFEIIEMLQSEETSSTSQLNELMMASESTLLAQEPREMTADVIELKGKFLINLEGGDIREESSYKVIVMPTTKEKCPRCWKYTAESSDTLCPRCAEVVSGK
With `COc1ccc(-c2ccc3c(N4CCOC[C@@H]4C)nc(N4CCOC[C@@H]4C)nc3n2)cc1CO` [AZD-8055] the Kd was > 30 µM (inactive).
`CCS(=O)(=O)N1CC(CC#N)(n2cc(-c3ncnc4[nH]ccc34)cn2)C1` [BARICITINIB] was tested, and the Kd was > 30 µM (inactive).

These compounds were tested against Phosphatidylethanolamine-binding protein 1 (Homo sapiens, UniProt P30086).
In the case of `COc1ccc(-c2ccc3c(N4CCOC[C@@H]4C)nc(N4CCOC[C@@H]4C)nc3n2)cc1CO` [AZD-8055], the Kd is reported as > 30 µM (inactive).
`Cc1ccc(NC(=O)c2ccc(CN3CC[C@H](N(C)C)C3)c(C(F)(F)F)c2)cc1Nc1nccc(-c2cncnc2)n1` [BAFETINIB] was tested, and the Kd was > 30 µM (inactive).
With `CCS(=O)(=O)N1CC(CC#N)(n2cc(-c3ncnc4[nH]ccc34)cn2)C1` [BARICITINIB] the Kd was > 30 µM (inactive).
In the case of `O=C(c1ccc(F)c(F)c1Nc1ccc(I)cc1F)N1CC(O)([C@@H]2CCCCN2)C1` [COBIMETINIB], the Kd is reported as > 30 µM (inactive).

Each compound was assayed against Serine/threonine-protein kinase PLK1 (Homo sapiens, UniProt P53350).
With `Cc1ccc(NC(=O)c2ccc(CN3CC[C@H](N(C)C)C3)c(C(F)(F)F)c2)cc1Nc1nccc(-c2cncnc2)n1` [BAFETINIB] the Kd was > 30 µM (inactive).
For `O=C(c1ccc(F)c(F)c1Nc1ccc(I)cc1F)N1CC(O)([C@@H]2CCCCN2)C1` [COBIMETINIB], the Kd was > 30 µM (inactive).
